Read-outs that look alike come from different tables or passages of the source.
Legend:
KRAS G12D [1] = target: KRAS G12D (Homo sapiens, UniProt P01116, G12D); experiment: KRAS G12D TR-FRET Assay; conditions: His-tagged KRAS G12D, biotinylated KRPep-2d, read-out: KRAS G12D Binding IC50
Procedure: The plate was incubated for 30 minutes at room temperature. Biotinylated KRPep-2d substrate (Amgen) was diluted to 20 nM in Assay Buffer and 2 uL was added to all wells and incubated for 1 hour at room temperature. Detection Reagent (0.4 nM LANCE Eu-W1024 Anti-6×His (Perkin Elmer AD0401), 5 nM streptavidin-d2 (Cisbio 610SADLA)) was prepared in Assay Buffer, then 4 μL was added to the plate and incubated for 1 hour at room temperature.

KRAS G12D [2] = target: KRAS G12D (Homo sapiens, UniProt P01116, C118A/G12D); experiment: KRAS G12D Coupled Nucleotide Exchange Assay; assay type: biochemical; conditions: GDP-bound KRAS G12D/C118A, 2 hours pre-incubation, SOS-mediated nucleotide exchange, AlphaScreen
Procedure: The assay plates were then read on a PerkinElmer EnVision Multilabel Reader, using AlphaScreen® technology, and data were analyzed using a 4-parameter logistic model to calculate IC50 values.

p-ERK (AsPC-1 cells) = experiment: Phospho-ERK1/2 MSD Assay; assay type: cell-based
Procedure: Sixteen hours prior to compound treatment, AsPC-1 cells were seeded in 96-well cell culture plates at a density of 25,000 cells/well and incubated at 37° C., 5% CO2. A compound dose-response titration was diluted in growth media, added to appropriate wells of a cell culture plate, and then incubated at 37° C., 5% CO2 for 2 hours. […] Phosphorylation of ERK1/2 in compound-treated lysates was assayed using Phospho-ERK1/2 Whole Cell Lysate kits (Meso Scale Discovery K151DWD) according to the manufacturer's protocol. Assay plates were read on a Meso Scale Discovery Sector Imager 6000, and data were analyzed using a 4-parameter logistic model to calculate IC50 values.

[3] = Homo sapiens, ASPC1, 2 h, read-out: 2 h p-ERK (AsPC-1 cells), IC50 (μM), AsPC-1 cells, 2 hours compound treatment
[4] = read-out: 2 h p-ERK (AsPC-1 cells), IC50, AsPC-1 cells, 2 hours compound treatment

Chain of KRAS G12D (Homo sapiens, UniProt P01116, G12D) (P01116 1-188 isoform P01116-2 G12D): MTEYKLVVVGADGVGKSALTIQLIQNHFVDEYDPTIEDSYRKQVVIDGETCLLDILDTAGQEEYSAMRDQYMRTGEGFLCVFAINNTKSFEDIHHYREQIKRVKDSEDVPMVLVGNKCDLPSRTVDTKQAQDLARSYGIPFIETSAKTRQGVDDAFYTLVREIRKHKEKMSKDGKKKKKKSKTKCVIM
Chain of KRAS G12D (Homo sapiens, UniProt P01116, C118A/G12D) (P01116 1-169 isoform P01116-2 G12D/C118A): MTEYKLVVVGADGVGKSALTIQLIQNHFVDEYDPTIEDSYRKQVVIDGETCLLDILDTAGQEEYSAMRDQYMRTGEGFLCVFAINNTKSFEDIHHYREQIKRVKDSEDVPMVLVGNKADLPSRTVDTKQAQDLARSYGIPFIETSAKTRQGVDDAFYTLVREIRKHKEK

| IC50 (KRAS G12D [1]) | IC50 (KRAS G12D [2]) | IC50 (p-ERK (AsPC-1 cells); [3]) | IC50 (p-ERK (AsPC-1 cells); [4]) | Compound |
| --- | --- | --- | --- | --- |
| 0.006 µM | 0.003 µM | 0.019 µM |  | CCc1c(F)ccc2cc(O)cc(-c3ncc4c(N5CCCC6(CCO6)C5)nc(OC[C@@H]5C[C@@H](F)CN5C)nc4c3F)c12 (single isomer, unassigned) [Example 60] |
| 0.01 µM | 0.004 µM | 0.007 µM |  | CCc1c(F)ccc2cc(O)cc(-c3ncc4c(N5CCCC6(CCO6)C5)nc(OC[C@@]56CCCN5C[C@H](F)C6)nc4c3C)c12 (single isomer, unassigned) [Example 61] |
| 0.004 µM | 0.002 µM | 0.026 µM |  | CCc1c(F)ccc2cccc(-c3ncc4c(N5CCCC6(CNC(=O)O6)C5)nc(OC[C@@]56CCCN5C[C@H](F)C6)nc4c3F)c12 (single isomer, unassigned) [Example 63] |
| 0.003 µM | 0.001 µM | 0.03 µM |  | CCc1c(F)ccc2cc(O)cc(-c3ncc4c(N5CCCC6(CCC(=O)O6)C5)nc(OC[C@@]56CCCN5C[C@H](F)C6)nc4c3F)c12 (single isomer, unassigned) [Example 66] |
| 0.004 µM | 0.002 µM |  | 0.06 µM | CCc1c(F)ccc2cc(O)cc(-c3ncc4c(N5CCCC6(COC(=O)O6)C5)nc(OC[C@@]56CCCN5C[C@H](F)C6)nc4c3F)c12 (single isomer, unassigned) [Example 67] |
| 0.023 µM | 0.011 µM |  | 1.58 µM | CCc1c(F)ccc2cc(O)cc(-c3ncc4c(N5CCCC6(COC(=O)O6)C5)nc(OC[C@@]56CCCN5C[C@H](F)C6)nc4c3F)c12 (single isomer, unassigned) [Example 68] |
| 0.003 µM | 0.004 µM | 0.329 µM |  | CCc1c(F)ccc2cc(O)cc(-c3ncc4c(N5CC(O)CC6(CCC6)C5)nc(OC[C@@]56CCCN5C[C@H](F)C6)nc4c3F)c12 (stereo partly drawn) [Example 1, 6-(7-(8-Ethyl-7-fluoro-3-hydroxynaphthalen-1-yl)-8-fluoro-2-(((2R,7aS)-2-fluorotetrahydro-1H-pyrrolizin-7a(5H)-yl)methoxy)pyrido[4,3-d]pyrimidin-4-yl)-6-azaspiro[3.5]nonan-8-ol] |
| 0.008 µM | 0.004 µM | 0.523 µM |  | CCc1c(F)ccc2cc(O)cc(-c3ncc4c(N5CCOC6(CC6)C5)nc(OC[C@@]56CCCN5C[C@H](F)C6)nc4c3F)c12 [Example 2, 5-Ethyl-6-fluoro-4-(8-fluoro-2-(((2R,7aS)-2-fluorotetrahydro-1H-pyrrolizin-7a(5H)-yl)methoxy)-4-(4-oxa-7-azaspiro[2.5]octan-7-yl)pyrido[4,3-d]pyrimidin-7-yl)naphthalen-2-ol] |
| 0.008 µM | 0.01 µM | 2.4 µM |  | CCc1c(F)ccc2cc(O)cc(-c3ncc4c(N5CCCC6(CC(=O)N6C)C5)nc(OC[C@@]56CCCN5C[C@H](F)C6)nc4c3F)c12 (stereo partly drawn) [Example 6, 6-(7-(8-Ethyl-7-fluoro-3-hydroxynaphthalen-1-yl)-8-fluoro-2-(((2R,7aS)-2-fluorotetrahydro-1H-pyrrolizin-7a(5H)-yl)methoxy)pyrido[4,3-d]pyrimidin-4-yl)-1-methyl-1,6-diazaspiro[3.5]nonan-2-one] |
| 0.005 µM | 0.006 µM | 0.341 µM |  | CCc1c(F)ccc2cc(O)cc(-c3ncc4c(N5CC(C)(O)CC6(CC6)C5)nc(OC[C@@]56CCCN5C[C@H](F)C6)nc4c3F)c12 (stereo partly drawn) [Example 19, 5-(7-(8-Ethyl-7-fluoro-3-hydroxynaphthalen-1-yl)-8-fluoro-2-(((2R,7aS)-2-fluorotetrahydro-1H-pyrrolizin-7a(5H)-yl)methoxy)pyrido[4,3-d]pyrimidin-4-yl)-7-methyl-5-azaspiro[2.5]octan-7-ol] |
| 0.001 µM | 0.002 µM | 0.066 µM |  | Oc1cc(Cl)c(C2CC2)c(-c2ncc3c(N4CCCC5(CCO5)C4)nc(OC[C@@]45CCCN4C[C@H](F)C5)nc3c2F)c1 (stereo partly drawn) [Example 26, 3-Chloro-4-cyclopropyl-5-(8-fluoro-2-(((2R,7aS)-2-fluorotetrahydro-1H-pyrrolizin-7a(5H)-yl)methoxy)-4-(1-oxa-6-azaspiro[3.5]nonan-6-yl)pyrido[4,3-d]pyrimidin-7-yl)phenol] |
| 0.004 µM | 0.006 µM | 0.137 µM |  | CCc1c(F)ccc2cc(O)cc(-c3ncc4c(N5CCCC6(CCCO6)C5)nc(OC[C@@]56CCCN5C[C@H](F)C6)nc4c3F)c12 (stereo partly drawn) [Example 27, 5-Ethyl-6-fluoro-4-(8-fluoro-2-(((2R,7aS)-2-fluorotetrahydro-1H-pyrrolizin-7a(5H)-yl)methoxy)-4-(1-oxa-7-azaspiro[4.5]decan-7-yl)pyrido[4,3-d]pyrimidin-7-yl) naphthalen-2-ol] |
| 0.003 µM | 0.005 µM | 0.923 µM |  | CCc1c(F)ccc2cc(O)cc(-c3ncc4c(N5CCCC6(CCC(=O)N6)C5)nc(OC[C@@]56CCCN5C[C@H](F)C6)nc4c3F)c12 (stereo partly drawn) [Example 28, 7-(7-(8-Ethyl-7-fluoro-3-hydroxynaphthalen-1-yl)-8-fluoro-2-(((2R,7aS)-2-fluorotetrahydro-1H-pyrrolizin-7a(5H)-yl)methoxy)pyrido[4,3-d]pyrimidin-4-yl)-1,7-diazaspiro[4.5]decan-2-one] |
| 0.01 µM | 0.009 µM | 2.04 µM |  | C#Cc1c(F)ccc2cccc(-c3ncc4c(N5CCCC6(CNC(=O)C6)C5)nc(OC[C@@]56CCCN5C[C@H](F)C6)nc4c3F)c12 (stereo partly drawn) [Example 29, 7-(7-(8-Ethynyl-7-fluoronaphthalen-1-yl)-8-fluoro-2-(((2R,7aS)-2-fluorotetrahydro-1H-pyrrolizin-7a(5H)-yl)methoxy)pyrido[4,3-d]pyrimidin-4-yl)-2,7-diazaspiro[4.5]decan-3-one] |
| 0.019 µM | 0.016 µM | 1.98 µM |  | CCc1c(F)ccc2cccc(-c3ncc4c(N5CCCC6(CNC(=O)C6)C5)nc(OC[C@@]56CCCN5C[C@H](F)C6)nc4c3F)c12 (stereo partly drawn) [Example 30, 7-(7-(8-Ethyl-7-fluoronaphthalen-1-yl)-8-fluoro-2-(((2R,7aS)-2-fluorotetrahydro-1H-pyrrolizin-7a(5H)-yl)methoxy)pyrido[4,3-d]pyrimidin-4-yl)-2,7-diazaspiro[4.5]decan-3-one] |
| 0.008 µM | 0.012 µM | 0.452 µM |  | CCc1c(F)ccc2cc(O)cc(-c3ncc4c(N5CCCC6(CCOC6)C5)nc(OC[C@@]56CCCN5C[C@H](F)C6)nc4c3F)c12 (stereo partly drawn) [Example 33, 5-Ethyl-6-fluoro-4-(8-fluoro-2-(((2R,7aS)-2-fluorotetrahydro-1H-pyrrolizin-7a(5H)-yl)methoxy)-4-(2-oxa-7-azaspiro[4.5]decan-7-yl)pyrido[4,3-d]pyrimidin-7-yl)naphthalen-2-ol] |
| 0.085 µM | 0.038 µM | 2.53 µM |  | CCc1c(F)ccc2cc(O)cc(-c3ncc4c(N5CCC6(CC(O)C6)C5)nc(OC[C@@]56CCCN5C[C@H](F)C6)nc4c3F)c12 (stereo partly drawn) [Example 37, 6-(7-(8-Ethyl-7-fluoro-3-hydroxynaphthalen-1-yl)-8-fluoro-2-(((2R,7aS)-2-fluorotetrahydro-1H-pyrrolizin-7a(5H)-yl)methoxy)pyrido[4,3-d]pyrimidin-4-yl)-6-azaspiro[3.4]octan-2-ol] |
| 0.002 µM | 0.003 µM | 2.53 µM |  | CCc1c(F)ccc2cc(O)cc(-c3ncc4c(N5CCCC6(CCS(=N)(=O)C6)C5)nc(OC[C@@]56CCCN5C[C@H](F)C6)nc4c3F)c12 (stereo partly drawn) [Example 39, 7-(7-(8-Ethyl-7-fluoro-3-hydroxynaphthalen-1-yl)-8-fluoro-2-(((2R,7aS)-2-fluorotetrahydro-1H-pyrrolizin-7a(5H)-yl)methoxy)pyrido[4,3-d]pyrimidin-4-yl)-2-imino-216-thia-7-azaspiro[4.5]decane 2-oxide] |
| 0.003 µM | 0.004 µM | 4.32 µM |  | CCc1c(F)ccc2cc(O)cc(-c3ncc4c(N5CCCC6(COC(=O)N6)C5)nc(OC[C@@]56CCCN5C[C@H](F)C6)nc4c3F)c12 (stereo partly drawn) [Example 40, 7-(7-(8-Ethyl-7-fluoro-3-hydroxynaphthalen-1-yl)-8-fluoro-2-(((2R,7aS)-2-fluorotetrahydro-1H-pyrrolizin-7a(5H)-yl)methoxy)pyrido[4,3-d]pyrimidin-4-yl)-3-oxa-1,7-diazaspiro[4.5]decan-2-one] |
| 0.019 µM | 0.01 µM | > 10 µM |  | CCc1c(F)ccc2cc(O)cc(-c3ncc4c(N5CCC6(CC5)CNC(=O)O6)nc(OC[C@@]56CCCN5C[C@H](F)C6)nc4c3F)c12 [Example 41, 8-(7-(8-Ethyl-7-fluoro-3-hydroxynaphthalen-1-yl)-8-fluoro-2-(((2R,7aS)-2-fluorotetrahydro-1H-pyrrolizin-7a(5H)-yl)methoxy)pyrido[4,3-d]pyrimidin-4-yl)-1-oxa-3,8-diazaspiro[4.5]decan-2-one] |
